Earlier results as cited in US6444224B1 (Interag, priority 1997, dated 2002).

Key:
pigs [1] = settings: oral, once daily at feeding
pigs [2] = settings: 15, 25, 50 mg per day (IM) for 14 days

Row | SMILES | Effectiveness to control oestrus and ovulation (pigs [1]) | Control of the oestrus cycle (pigs [2]) | Fertility (pigs [2])
1 | C=CC(C)NC(=S)NNC(=S)NC (stereo not shown) [methallibure] | effective |  | 
2 | CC(=O)[C@H]1CC[C@H]2[C@@H]3CCC4=CC(=O)CC[C@]4(C)[C@H]3CC[C@]12C [progesterone] |  | results in control of the oestrus cycle | poor fertility results
3 | C=CC[C@]1(O)CC[C@H]2[C@@H]3CCC4=CC(=O)CCC4=C3C=C[C@@]21C [altrenogest] | effective |  | 
